Measurements from ChEMBL document CHEMBL4507276 (2021).

What was measured:
[1] = target: Phosphatidylinositol 4-kinase beta (Homo sapiens) (UniProt Q9UBF8); conditions: Compound concentration 1000.0 nM
[2] = target: Protein kinase C theta type (Homo sapiens) (UniProt Q04759); conditions: Compound concentration 1000.0 nM
[3] = target: cGMP-inhibited 3',5'-cyclic phosphodiesterase 3B (Homo sapiens) (UniProt Q13370); experiment: PDE3B Cerep selectivity data (BI); conditions: Compound concentration 20.0 uM
[4] = target: Eukaryotic elongation factor 2 kinase (Homo sapiens) (UniProt O00418); experiment: EEF2K Invitrogen selectivity data (BI); conditions: Compound concentration 3.0 uM
[5] = target: Tyrosine-protein kinase ABL2 (Homo sapiens) (UniProt P42684); experiment: ABL2 Invitrogen selectivity data (BI); conditions: Compound concentration 3.0 uM
[6] = target: Apelin receptor (Homo sapiens) (UniProt P35414); experiment: APJH_AGON Cerep selectivity data (BI); conditions: filed as agonist, Compound concentration 20.0 uM
Chain of Apelin receptor (Homo sapiens) (P35414 whole entry, canonical isoform): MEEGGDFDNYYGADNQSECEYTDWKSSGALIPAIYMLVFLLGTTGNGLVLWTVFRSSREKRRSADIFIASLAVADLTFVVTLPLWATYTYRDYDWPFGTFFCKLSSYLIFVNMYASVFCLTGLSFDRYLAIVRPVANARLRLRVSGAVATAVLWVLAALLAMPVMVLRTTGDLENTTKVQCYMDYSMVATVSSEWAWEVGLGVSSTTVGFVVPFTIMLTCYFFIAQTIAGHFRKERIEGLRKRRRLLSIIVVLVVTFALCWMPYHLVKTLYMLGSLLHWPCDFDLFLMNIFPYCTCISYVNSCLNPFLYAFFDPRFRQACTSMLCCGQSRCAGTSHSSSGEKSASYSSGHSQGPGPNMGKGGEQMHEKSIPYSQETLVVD

[7] = target: Casein kinase I isoform gamma-2 (Homo sapiens) (UniProt P78368); experiment: CSNK1G2 Invitrogen selectivity data (BI); conditions: Compound concentration 3.0 uM
Chain of Casein kinase I isoform gamma-2 (Homo sapiens) (P78368 whole entry, looked up, canonical isoform): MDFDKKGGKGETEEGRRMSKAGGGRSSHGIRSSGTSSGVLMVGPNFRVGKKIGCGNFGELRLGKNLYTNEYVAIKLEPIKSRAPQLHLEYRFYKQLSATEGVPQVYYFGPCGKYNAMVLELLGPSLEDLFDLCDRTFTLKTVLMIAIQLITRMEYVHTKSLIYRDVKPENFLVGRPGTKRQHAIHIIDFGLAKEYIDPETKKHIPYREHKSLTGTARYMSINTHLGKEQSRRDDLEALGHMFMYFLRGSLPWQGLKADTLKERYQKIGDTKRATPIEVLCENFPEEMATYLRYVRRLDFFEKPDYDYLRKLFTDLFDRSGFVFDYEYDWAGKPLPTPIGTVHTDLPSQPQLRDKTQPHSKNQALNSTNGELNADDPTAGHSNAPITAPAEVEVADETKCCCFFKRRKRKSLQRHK

[8] = target: cGMP-specific 3',5'-cyclic phosphodiesterase (Homo sapiens) (UniProt O76074); experiment: PDE5 Cerep selectivity data (BI); conditions: Compound concentration 20.0 uM
[9] = test system: Proto-oncogene tyrosine-protein kinase receptor Ret (Homo sapiens), P07949 [Y791F]; experiment: RET Y791F Invitrogen selectivity data (BI); conditions: Compound concentration 3.0 uM
Chain of Proto-oncogene tyrosine-protein kinase receptor Ret (Homo sapiens), P07949 [Y791F] (P07949 whole entry Y791F): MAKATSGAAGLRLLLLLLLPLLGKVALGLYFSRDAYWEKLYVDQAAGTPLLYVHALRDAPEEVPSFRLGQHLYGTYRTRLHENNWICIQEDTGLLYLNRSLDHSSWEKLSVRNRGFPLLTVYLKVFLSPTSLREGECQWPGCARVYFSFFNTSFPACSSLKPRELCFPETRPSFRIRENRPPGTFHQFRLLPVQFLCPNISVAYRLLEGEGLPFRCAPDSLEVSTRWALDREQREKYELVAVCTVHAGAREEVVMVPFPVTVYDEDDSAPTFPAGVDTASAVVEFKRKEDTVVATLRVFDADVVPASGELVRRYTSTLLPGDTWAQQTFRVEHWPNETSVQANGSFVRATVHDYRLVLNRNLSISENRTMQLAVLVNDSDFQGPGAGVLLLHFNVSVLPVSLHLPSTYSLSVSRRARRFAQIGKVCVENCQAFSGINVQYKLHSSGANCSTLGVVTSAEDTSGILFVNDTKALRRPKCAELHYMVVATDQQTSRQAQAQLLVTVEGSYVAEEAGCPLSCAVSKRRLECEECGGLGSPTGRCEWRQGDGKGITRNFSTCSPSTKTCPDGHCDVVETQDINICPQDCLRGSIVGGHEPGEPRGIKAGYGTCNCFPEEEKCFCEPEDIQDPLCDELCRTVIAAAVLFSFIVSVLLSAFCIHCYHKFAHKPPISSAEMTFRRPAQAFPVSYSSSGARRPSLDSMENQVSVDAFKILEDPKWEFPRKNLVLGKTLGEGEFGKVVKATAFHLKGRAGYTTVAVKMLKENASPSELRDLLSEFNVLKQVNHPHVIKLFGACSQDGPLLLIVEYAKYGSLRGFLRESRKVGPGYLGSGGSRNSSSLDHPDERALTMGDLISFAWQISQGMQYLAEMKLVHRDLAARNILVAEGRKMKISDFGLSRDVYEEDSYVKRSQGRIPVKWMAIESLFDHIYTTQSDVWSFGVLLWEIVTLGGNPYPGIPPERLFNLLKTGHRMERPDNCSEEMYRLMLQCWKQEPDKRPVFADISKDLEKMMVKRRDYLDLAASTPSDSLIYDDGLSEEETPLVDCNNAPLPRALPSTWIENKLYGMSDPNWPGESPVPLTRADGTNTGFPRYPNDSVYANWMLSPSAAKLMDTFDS

[10] = target: 3',5'-cyclic-AMP phosphodiesterase 4D (Homo sapiens) (UniProt Q08499); experiment: PDE4D2 Cerep selectivity data (BI); conditions: Compound concentration 20.0 uM
Chain of 3',5'-cyclic-AMP phosphodiesterase 4D (Homo sapiens) (Q08499 whole entry): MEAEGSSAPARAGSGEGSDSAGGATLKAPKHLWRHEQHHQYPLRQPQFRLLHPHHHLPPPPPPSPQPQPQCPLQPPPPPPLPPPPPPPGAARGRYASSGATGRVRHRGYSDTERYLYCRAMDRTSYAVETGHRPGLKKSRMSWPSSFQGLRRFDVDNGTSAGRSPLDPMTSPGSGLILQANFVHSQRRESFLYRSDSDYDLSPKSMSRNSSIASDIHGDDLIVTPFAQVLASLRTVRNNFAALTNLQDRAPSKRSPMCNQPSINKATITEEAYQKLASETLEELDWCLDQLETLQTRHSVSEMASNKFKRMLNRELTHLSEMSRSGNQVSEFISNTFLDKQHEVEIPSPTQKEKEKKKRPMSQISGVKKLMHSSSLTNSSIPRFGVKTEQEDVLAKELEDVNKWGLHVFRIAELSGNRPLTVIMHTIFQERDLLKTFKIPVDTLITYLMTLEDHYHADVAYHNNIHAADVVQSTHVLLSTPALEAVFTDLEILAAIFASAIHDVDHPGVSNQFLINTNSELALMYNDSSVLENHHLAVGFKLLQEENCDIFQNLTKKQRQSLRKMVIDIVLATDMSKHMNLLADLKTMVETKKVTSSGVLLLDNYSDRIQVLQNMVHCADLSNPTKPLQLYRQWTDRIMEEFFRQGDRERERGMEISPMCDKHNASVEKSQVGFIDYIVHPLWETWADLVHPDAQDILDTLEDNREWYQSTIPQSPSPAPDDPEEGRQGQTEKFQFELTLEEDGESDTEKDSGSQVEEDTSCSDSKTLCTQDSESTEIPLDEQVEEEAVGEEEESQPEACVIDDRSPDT

[11] = target: Homeodomain-interacting protein kinase 2 (Homo sapiens) (UniProt Q9H2X6); experiment: HIPK2 Invitrogen selectivity data (BI); conditions: Compound concentration 3.0 uM
[12] = target: Calcium/calmodulin-dependent protein kinase kinase 1 (Homo sapiens) (UniProt Q8N5S9); experiment: CAMKK1 Invitrogen selectivity data (BI); conditions: Compound concentration 3.0 uM
[13] = target: Protein kinase C zeta type (Homo sapiens) (UniProt Q05513); experiment: PRKCZ Invitrogen selectivity data (BI); conditions: Compound concentration 3.0 uM
[14] = target: T1, Serine/threonine-protein kinase TAO2 (Homo sapiens) (UniProt Q9UL54); experiment: TAOK2 Invitrogen selectivity data (BI); conditions: Compound concentration 3.0 uM
T1 sequence (whole entry): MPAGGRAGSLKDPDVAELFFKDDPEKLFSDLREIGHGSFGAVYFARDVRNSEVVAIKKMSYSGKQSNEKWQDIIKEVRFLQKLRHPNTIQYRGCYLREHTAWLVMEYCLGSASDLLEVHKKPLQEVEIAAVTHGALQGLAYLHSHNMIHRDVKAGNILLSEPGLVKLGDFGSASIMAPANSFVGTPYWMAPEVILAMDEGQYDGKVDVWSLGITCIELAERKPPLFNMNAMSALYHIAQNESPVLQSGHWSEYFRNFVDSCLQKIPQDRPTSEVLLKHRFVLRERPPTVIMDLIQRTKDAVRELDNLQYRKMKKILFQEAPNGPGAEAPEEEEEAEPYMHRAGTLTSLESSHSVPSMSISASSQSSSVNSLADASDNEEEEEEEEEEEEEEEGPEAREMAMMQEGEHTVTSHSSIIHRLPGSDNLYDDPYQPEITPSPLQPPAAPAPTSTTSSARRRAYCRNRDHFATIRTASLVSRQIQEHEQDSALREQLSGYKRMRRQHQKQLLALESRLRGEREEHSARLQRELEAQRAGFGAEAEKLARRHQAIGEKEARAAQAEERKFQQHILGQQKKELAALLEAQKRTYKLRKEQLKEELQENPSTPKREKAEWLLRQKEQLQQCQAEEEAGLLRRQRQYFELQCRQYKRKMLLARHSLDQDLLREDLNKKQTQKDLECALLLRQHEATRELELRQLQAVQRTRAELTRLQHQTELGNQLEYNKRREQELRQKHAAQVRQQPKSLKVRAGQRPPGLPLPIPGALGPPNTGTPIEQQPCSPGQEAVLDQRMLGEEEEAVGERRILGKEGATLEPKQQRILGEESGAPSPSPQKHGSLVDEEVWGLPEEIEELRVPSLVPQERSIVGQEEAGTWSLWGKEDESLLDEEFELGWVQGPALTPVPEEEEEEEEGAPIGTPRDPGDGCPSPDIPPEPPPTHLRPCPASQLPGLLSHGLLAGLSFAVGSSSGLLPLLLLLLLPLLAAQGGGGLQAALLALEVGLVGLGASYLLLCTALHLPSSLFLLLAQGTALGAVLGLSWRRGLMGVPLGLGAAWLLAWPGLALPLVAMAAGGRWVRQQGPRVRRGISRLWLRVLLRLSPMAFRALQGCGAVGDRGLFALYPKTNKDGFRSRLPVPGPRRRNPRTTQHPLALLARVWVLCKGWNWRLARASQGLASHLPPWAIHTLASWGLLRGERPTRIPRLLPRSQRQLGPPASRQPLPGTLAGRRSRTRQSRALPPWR

[15] = target: 5-hydroxytryptamine receptor 2B (Homo sapiens) (UniProt P41595); experiment: 5HT2B/HU Eurofins-Panlabs selectivity data (BI); conditions: Compound concentration 10.0 uM
[16] = target: Thyroid hormone receptor alpha (Rattus norvegicus) (UniProt P63059); experiment: TRTH_AGON Cerep selectivity data (BI); conditions: filed as agonist, Compound concentration 20.0 uM
[17] = target: Tyrosine-protein kinase receptor UFO (Homo sapiens) (UniProt P30530); experiment: AXL Invitrogen selectivity data (BI); conditions: Compound concentration 3.0 uM
[18] = target: T2, Dual specificity mitogen-activated protein kinase kinase 6 (Homo sapiens) (UniProt P52564); experiment: MAP2K6 Invitrogen selectivity data (BI); conditions: Compound concentration 3.0 uM
T2 sequence (whole entry): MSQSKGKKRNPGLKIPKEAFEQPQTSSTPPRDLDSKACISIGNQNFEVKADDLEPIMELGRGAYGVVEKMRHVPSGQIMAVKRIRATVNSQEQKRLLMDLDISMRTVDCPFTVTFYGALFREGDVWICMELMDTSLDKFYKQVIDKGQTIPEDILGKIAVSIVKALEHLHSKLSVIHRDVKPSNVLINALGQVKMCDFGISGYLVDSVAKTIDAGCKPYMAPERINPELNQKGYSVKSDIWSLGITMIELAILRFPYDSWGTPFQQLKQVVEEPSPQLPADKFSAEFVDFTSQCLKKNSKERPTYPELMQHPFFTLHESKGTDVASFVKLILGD

[19] = target: Homeodomain-interacting protein kinase 1 (Homo sapiens) (UniProt Q86Z02); experiment: HIPK1 Invitrogen selectivity data (BI); conditions: Compound concentration 3.0 uM
[20] = target: Casein kinase II subunit alpha' (Homo sapiens) (UniProt P19784); experiment: CSNK2A2 Invitrogen selectivity data (BI); conditions: Compound concentration 3.0 uM
[21] = target: Epithelial discoidin domain-containing receptor 1 (Homo sapiens) (UniProt Q08345); experiment: DDR1 Invitrogen selectivity data (BI); conditions: Compound concentration 3.0 uM
[22] = target: Tyrosine-protein kinase HCK (Homo sapiens) (UniProt P08631); experiment: HCK Invitrogen selectivity data (BI); conditions: Compound concentration 3.0 uM
[23] = target: Mitogen-activated protein kinase 14 (Homo sapiens) (UniProt Q16539); experiment: MAPK14P38A Invitrogen selectivity data (BI); conditions: Compound concentration 3.0 uM
[24] = target: Alpha-1D adrenergic receptor (Homo sapiens) (UniProt P25100); conditions: Compound concentration 10.0 uM
Chain of Alpha-1D adrenergic receptor (Homo sapiens) (P25100 whole entry): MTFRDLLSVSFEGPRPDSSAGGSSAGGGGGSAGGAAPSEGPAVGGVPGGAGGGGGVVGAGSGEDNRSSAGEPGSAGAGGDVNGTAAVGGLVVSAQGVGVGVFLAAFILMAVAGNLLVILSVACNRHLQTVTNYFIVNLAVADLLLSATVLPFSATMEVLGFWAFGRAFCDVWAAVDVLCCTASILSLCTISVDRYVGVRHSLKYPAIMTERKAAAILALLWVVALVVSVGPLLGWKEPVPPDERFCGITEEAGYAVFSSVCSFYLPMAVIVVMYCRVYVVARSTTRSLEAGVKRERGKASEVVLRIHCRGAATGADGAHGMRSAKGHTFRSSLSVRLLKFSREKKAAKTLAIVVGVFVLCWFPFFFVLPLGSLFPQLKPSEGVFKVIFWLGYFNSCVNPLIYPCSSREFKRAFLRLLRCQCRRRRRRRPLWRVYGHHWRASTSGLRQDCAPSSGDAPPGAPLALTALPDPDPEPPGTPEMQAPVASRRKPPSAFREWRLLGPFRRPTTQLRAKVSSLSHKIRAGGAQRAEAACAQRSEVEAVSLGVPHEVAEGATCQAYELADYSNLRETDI

[25] = target: Calcium/calmodulin-dependent protein kinase type II subunit delta (Homo sapiens) (UniProt Q13557); experiment: CAMK2D Invitrogen selectivity data (BI); conditions: Compound concentration 3.0 uM

Chain of Phosphatidylinositol 4-kinase beta (Homo sapiens) (Q9UBF8 2-816 limits assumed): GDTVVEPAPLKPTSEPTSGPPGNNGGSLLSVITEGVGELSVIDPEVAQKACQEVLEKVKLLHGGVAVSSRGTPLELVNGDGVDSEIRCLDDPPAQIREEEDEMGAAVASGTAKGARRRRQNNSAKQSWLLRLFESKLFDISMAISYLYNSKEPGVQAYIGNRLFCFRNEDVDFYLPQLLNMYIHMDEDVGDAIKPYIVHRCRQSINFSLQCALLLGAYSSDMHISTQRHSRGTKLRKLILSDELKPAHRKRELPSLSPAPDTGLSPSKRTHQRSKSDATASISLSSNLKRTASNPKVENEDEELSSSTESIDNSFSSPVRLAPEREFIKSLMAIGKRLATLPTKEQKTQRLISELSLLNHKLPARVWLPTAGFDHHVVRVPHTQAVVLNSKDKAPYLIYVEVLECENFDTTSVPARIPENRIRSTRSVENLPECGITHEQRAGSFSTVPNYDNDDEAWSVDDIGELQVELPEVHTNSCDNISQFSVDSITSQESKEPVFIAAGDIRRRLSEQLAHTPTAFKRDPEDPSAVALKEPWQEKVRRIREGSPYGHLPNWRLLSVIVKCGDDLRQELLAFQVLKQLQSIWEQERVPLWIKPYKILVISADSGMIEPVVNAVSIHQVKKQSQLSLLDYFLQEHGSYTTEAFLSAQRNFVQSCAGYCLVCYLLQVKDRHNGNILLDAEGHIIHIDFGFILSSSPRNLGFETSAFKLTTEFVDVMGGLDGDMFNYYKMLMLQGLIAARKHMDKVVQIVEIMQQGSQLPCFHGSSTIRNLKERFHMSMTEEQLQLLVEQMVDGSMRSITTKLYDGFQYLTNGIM
Chain of Protein kinase C theta type (Homo sapiens) (Q04759 whole entry, looked up): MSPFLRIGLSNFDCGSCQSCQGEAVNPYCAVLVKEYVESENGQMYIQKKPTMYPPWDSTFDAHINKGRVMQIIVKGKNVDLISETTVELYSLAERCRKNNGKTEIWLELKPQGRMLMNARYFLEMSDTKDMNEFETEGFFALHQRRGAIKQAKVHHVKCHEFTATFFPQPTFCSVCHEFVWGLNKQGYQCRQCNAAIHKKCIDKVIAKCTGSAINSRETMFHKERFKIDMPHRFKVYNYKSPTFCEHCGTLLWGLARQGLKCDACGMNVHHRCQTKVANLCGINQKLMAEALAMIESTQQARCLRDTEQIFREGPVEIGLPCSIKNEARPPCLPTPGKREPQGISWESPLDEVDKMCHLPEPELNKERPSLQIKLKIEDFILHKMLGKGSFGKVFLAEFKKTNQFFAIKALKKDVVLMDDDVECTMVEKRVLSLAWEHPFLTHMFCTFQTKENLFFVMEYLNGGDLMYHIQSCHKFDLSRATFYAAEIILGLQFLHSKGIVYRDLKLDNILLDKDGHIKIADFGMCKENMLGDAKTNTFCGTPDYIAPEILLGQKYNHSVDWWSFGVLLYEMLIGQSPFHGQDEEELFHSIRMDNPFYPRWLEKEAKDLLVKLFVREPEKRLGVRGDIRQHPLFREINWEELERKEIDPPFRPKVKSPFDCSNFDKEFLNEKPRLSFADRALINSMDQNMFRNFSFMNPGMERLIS

CN(C)C(=O)Cn1cc(-c2nc(C3(c4ccc(-c5cnc(N)nc5)cc4)CC3)no2)cn1 [BI 0153]
inactive: residual activity [1] 70% | residual activity [2] 89%

CN(C)C(=O)Cn1cc(-c2nc([C@@](C)(c3ccc(-c4cnc(N)nc4)cc3)C3CC3)no2)cn1 [BI 665915]
inactive: residual activity [3] 95% | residual activity [4] 93.5% | residual activity [5] 79.5% | residual activity [6] 101% | residual activity [7] 98.5% | residual activity [8] 89% | residual activity [9] 60% | residual activity [10] 82% | residual activity [11] 96% | residual activity [12] 102% | residual activity [13] 100% | residual activity [14] 100% | residual activity [15] 97% | residual activity [16] 129% | residual activity [17] 95.5% | residual activity [18] 103% | residual activity [19] 97% | residual activity [20] 94.5% | residual activity [21] 99% | residual activity [22] 85% | residual activity [23] 100% | inhibition [24] -3.06% | residual activity [25] 94.5%
